Measurements taken from US12552823B2, “Glucosamine derivatives and pharmaceutical uses thereof” (RISEN (SUZHOU) PHARMA TECH CO., LTD., priority 2017, dated 2026).

Key:
[1] = system: Monosodium Iodoacetate-Induced Osteoarthritis (MIA) Model in Rat Knee; assay: Monosodium iodoacetate-induced osteoarthritis (MIA) model in rat knee: weight bearing and histology; type: in vivo
Experimental: Osteoarthritis was induced by intra-articular (i.a.) injection of MIA solution in the rat knee joint as follows: Briefly, rats were anesthetized with isoflurane and given a single i.a. administration of 2 mg of MIA dissolved in saline through the intrapatellar ligament of the right knee. MIA was administered in a volume of 50 μL. Basal readings were established using a group of control rats injected with 10% ethanol in water. Rats were randomized by initial body weight to groups of 6 or 7. After MIA injection, the MIA groups began treatment with either vehicle, or a test compound at a preset dose regime for a period of 28 days. Clinical observations were recorded, including body weight, joint swelling, and weight bearing, on pre-induction day (day 0), day 3, 5, 7, 14, 21 and/or 28. At the end of the study, the animals were euthanized by CO2 and sacrificed.
Joint samples including the tibia and femur were sectioned in the coronal plane and stained using both H&E and Safranin-O. Knee joints were examined and scored for cartilage degeneration, the presence of osteophytes, the amount and extent of calcified cartilage and subchondral bone damage, and the amount of synovial membrane inflammation using the Osteoarthritis Research Society International (OARSI) scoring system put forth in 2010 (Kraus, V. B. et al., Osteoarthritis Cartilage, 2010, Suppl 3:535-52).
Studies of compound 16 in the MIA model were conducted as described above.

[2] = system: Medial Meniscus Transection (MMT) Model in Rats; assay: Medial meniscus transection (MMT) model in rats: weight bearing and histopathology; type: in vivo, rat
Source text: In the rat MMT model, the unilateral knee (right knee) was cleaned and prepped for surgery. An incision was made over the medial aspect of the femoro-tibial joint. The medial collateral ligament was exposed via blunt dissection and transected to reflect the meniscus toward the femur. A full thickness cut was made through the meniscus at its narrowest point. The joint space was returned to normal, and the skin was closed and the animal allowed to recover. For the present study, at second day post MMT induction animals, G1 and G2 animals were treatment with vehicle and test compound 16 respectively. Animals were dosed 4 times every day, and were dosed by gavage for 4 weeks.

[3] = Pharmacokinetic studies in Sprague-Dawley (SD) rats: plasma GlcNBu after oral gavage of test compound; type: in vivo; set-up: key to AUC0-t / AUC0-∞ / t1/2z / Tmax / Vz/F / CLz/F / Cmax: (—): not detected; settings: 0.93 mmol/kg; for AUC0-t / AUC0-∞ / CLz/F / Cmax / Tmax / Vz/F / t1/2z: Table 5, plasma GlcNBu after oral gavage of indicated compound
Experimental: A test compound is dissolved in water at a concentration determined by the desired dose and dosing volume for the specific animal to which the compound is to be administered. A calculated volume of dosing solution is administered to the animal (PO, SQ, IP, or IV). A blood sample is collected following administration of the test compound at specific time points (such as 0 minutes (min), 5 min, 10 min, 15 min, 30 min, 1 hour (h), 1.5 h, 2 h, 3 h, 4, 6 h, etc.). The blood sample is converted to a plasma sample using standard techniques. The plasma samples are analyzed to determine the concentration of the test compound and, in some cases, GlcNBu.
According to the above general procedure, SD rats were grouped randomly into groups of six (n=6). The test compound, GlcNBu or a compound provided herein, was administered to the animals by oral gavage at a dose of 0.93 mmol/kg. For illustration purposes, GlcNBu was given at an oral dose of 232 mg/kg (0.93 mmol/kg), and compound 16 was administered at an equal molar dose (0.93 mmol/kg, i.e., 362 mg/kg). At pre-set time points, blood was taken through orbital venous plexus extraction, and the samples were analyzed using LC/MS-MS to determine the GlcNBu concentration in the plasma.
In the figure, Curves labeled with -●- and -▴-represent plasma GlcNBu concentration following oral administration of GlcNBu (232 mg/kg, or 0.93 mmol/kg) and compound 16 ([…], or 0.93 mmol/kg), respectively. […] FIG. 2A and FIG. 2B show examples of other compounds of the invention, presented in plasma GlcNBu concentration versus time curves; a summary of pharmacokinetic parameters for these compounds is given in Table 4 and Table 5.

[4] = system: destructive arthritis rat model; settings: cited from earlier work
OVX rat = settings: feeding in the OVX rat; cited from earlier work
[5] = humans, polyvalent or monovalent form, compared with glucosamine; cited from earlier work

SMILES | AUC0-t [3] | AUC0-∞ [3] | CLz/F [3] | Cmax [3] | Tmax [3] | Vz/F [3] | t1/2z [3] | other results
CCCC(=O)N[C@H]1C(O)O[C@H](COC(=O)CCC)[C@@H](OC(=O)CCC)[C@@H]1O (stereo partly drawn) [Compound 16, 2-N-butyryl-4,6-O-tributyryl-D-glucosamine] |  |  |  |  |  |  |  | articular cartilage degeneration ([1]; MIA-induced OA rat model): slowed the articular cartilage degeneration; weight bearing on the back-right leg ([1]; day 5, all compound-treated groups (234 and 468 mg/kg) vs vehicle): significant increases; weight bearing ([1]; day 14, high dose (G3, 468 mg/kg) vs vehicle): significant increases; osteophytes (histology) ([1]; high dose group (468 mg/kg) compared with vehicle group): significantly decreased; other histological parameters (mean values) ([1]; high dose treated group (468 mg/kg) vs vehicle): clear trend of lowering all other mean values; degeneration changes of chondrocyte clustering ([2]; G2 as compared with G1): significantly lower; weight bearing on the right paw ([2]; G2 as compared with G1 on Day 3 and Days 14-28): significantly increased; histology parameters ([2]; G2 vs G1, all parameters): values in all parameters lower; plasma drug exposure ([3]; versus GlcNBu at mole-equivalent oral dose): improved plasma drug exposure significantly
CCCC(=O)N[C@H]1C(OCc2ccccc2)O[C@H](CO)[C@@H](O)[C@@H]1O (stereo partly drawn) [Compound 75, 1-O-benzyl-2-N-butyryl-D-glucosamine] | (—) | (—) | (—) | (—) | (—) | (—) | (—) | 
CCCC(=O)N[C@H]1C(OCc2ccccc2)O[C@H](CO)[C@@H](O)[C@@H]1OCc1ccccc1 (stereo partly drawn) [Compound 76, 2-N-butyryl-1,3-di-O-benzyl-D-glucosamine] | (—) | (—) | (—) | (—) | (—) | (—) | (—) | 
CCCC(=O)N[C@H]1C(O)O[C@H](COC(=O)CCC(=O)O)[C@@H](OC(=O)CCC(=O)O)[C@@H]1O (stereo partly drawn) [Compound 79, 2-N-butyryl-4,6-di-O-(4-hydroxy-4-oxo-butyryl)-D-glucosamine] | (—) | (—) | (—) | (—) | (—) | (—) | (—) | 
CCCC(=O)N[C@H]1C(O)O[C@H](COC(=O)NCCCC(=O)O)[C@@H](O)[C@@H]1O (stereo partly drawn) [Compound 94, 2-N-butyryl-6-O-((3-carboxy-1-propyl)aminocarbonyl)-D-glucosamine] | (—) | (—) | (—) | (—) | (—) | (—) | (—) | 
CCCC(=O)N[C@H]1C(O)O[C@H](CO)[C@@H](O)[C@@H]1O (stereo partly shown) [GlcNBu, N-butyryl glucosamine] |  |  |  |  |  |  |  | subchondral bone structure [4]: preserved strikingly the subchondral bone structure; bone mineral and biomechanical properties (OVX rat): preserves bone mineral and some biomechanical properties
CC(=O)N[C@H]1C(O)O[C@H](CO)[C@@H](O)[C@@H]1O (stereo partly shown) [N-acetylglucosamine] |  |  |  |  |  |  |  | half-life [5]: longer half-life than glucosamine
